Experimental data as given in patent publication US9012431B2, “Boron-containing small molecules as anti-inflammatory agents” (Anacor Pharmaceuticals, Inc., priority 2008, dated 2015).
Structures can show the parent of a compound that is named as a salt.

Tests used:
IFN-γ = test: Cytokine assay, IFN-γ release from PBMC; type: cell-based; details: human PBMC, 20 ug/mL PHA; for IC50: supernatant at 24 hours; for inhibition at 10 µM: 24 hours
Experimental: (§1) The ability of the compounds described herein to inhibit pro-inflammatory cytokines or phsophodiesterases were tested.
(§2) Frozen human peripheral blood mononucleocytes (PBMC) were thawed and centrifuged. Cryopreservation media was aspirated off of the cell pellet, and the cells were resuspended in fresh culture media (CM) comprising RPMI 1640 and 10% FBS in 96 well plates. Test article was dissolved in DMSO to form a 10 mM sample (DMSO, 100%). The 10 mM samples were diluted to 100 μM in CM (DMSO, 1%), then further diluted to 10, 1, 0.1, 0.01 μM in 200 μL of CM (n=3). […] IL-23 was assayed using a commercial ELISA kit (R&D Systems).

[1] = system: T1, PDE4 partially purified from human U-937 myeloid leukemia cells; test: PDE4 Assay (enzyme from U-937 cells, [3H]cAMP); type: biochemical; details: PDE4 from U-937 cells, Tris buffer pH 7.5, 20 minutes at 25° C.
T1 construct: PDE4 partially purified from human U-937 myeloid leukemia cells was used
Experimental: Test article and/or vehicle was incubated with 0.2 mg enzyme and 1 mM cAMP containing 0.01 mM [3H]cAMP in Tris buffer pH 7.5 for 20 minutes at 25° C. The reaction was terminated by boiling for 2 minutes and the resulting AMP is converted to adenosine by addition of 10 mg/ml snake venom nucleotidase and further incubation at 37° C. for 10 minutes. Unhydrolyzed cAMP is bound to AG1-X2 resin, and remaining [3H]Adenosine in the aqueous phase is quantitated by scintillation counting.

TNF-α = test: Cytokine assay, TNF-α release from PBMC; type: cell-based; details: 1 μg/mL LPS; for IC50: supernatant at 24 hours
Experimental: as §1, §2

IL-10 = test: Cytokine assay, IL-10 release from PBMC; type: cell-based; details: human PBMC, 20 ug/mL PHA; for IC50: supernatant at 48 hours; for inhibition at 10 µM: 48 hours
Experimental: as §1, §2

IL-2 = test: Cytokine assay, IL-2 release from PBMC; type: cell-based; details: human PBMC, 20 ug/mL PHA; for IC50: supernatant at 24 hours; for inhibition at 10 µM: 24 hours
Experimental: as §1, §2

IL-5 = test: Cytokine assay, IL-5 release from PBMC; type: cell-based; details: human PBMC, 20 ug/mL PHA; for IC50: supernatant at 48 hours; for inhibition at 10 µM: 48 hours
Experimental: as §1, §2

| Compound | IC50 (IFN-γ) | IC50 [1] | IC50 (TNF-α; Homo sapiens, PBMC, 24 h) | IC50 (IL-10) | IC50 (IL-2) | IC50 (IL-5) | inhibition at 10 µM (IFN-γ) | IC50 (TNF-α; human PBMC, hydrochloride) | inhibition at 10 µM (TNF-α; human PBMC, 24 hours, 10 μM) | inhibition at 10 µM (IL-10) | inhibition at 10 µM (IL-2) | inhibition at 10 µM (IL-5) |
| --- | --- | --- | --- | --- | --- | --- | --- | --- | --- | --- | --- | --- |
| N#Cc1ccc(Oc2ccc3c(c2)B(O)OC3)cc1 [C18, 6-(4-Cyanophenoxy)-1,3-dihydro-1-hydroxy-2,1-benzoxaborole] | > 10000 nM | > 10000 nM | > 10000 nM | > 10000 nM | > 10000 nM | > 10000 nM |  |  |  |  |  |  |
| COc1ccc(Oc2ccc3c(c2)B(O)OC3)cc1 [C31, 6-(4-Methoxyphenoxy)-1,3-dihydro-1-hydroxy-2,1-benzoxaborole] |  | 4000 to 10000 nM | > 10000 nM | > 10000 nM | > 10000 nM | > 10000 nM | 30 to 60% |  |  |  |  |  |
| O=C(O)c1ccc(Oc2ccc3c(c2)COB3O)cc1 [C38, 4-(1-hydroxy-1,3-dihydro-benzo[c][1,2]oxaborol-5-yloxy)-benzoic acid] | > 10000 nM | 4000 to 10000 nM | > 10000 nM | > 10000 nM | > 10000 nM | > 10000 nM |  |  |  |  |  |  |
| N#Cc1ccc(COc2ccc3c(c2)COB3O)cc1 [D1, 5-(4-Cyanobenzyloxy)-1,3-dihydro-1-hydroxy-2,1-benzoxaborole] | 1000 to 4000 nM | 1000 to 4000 nM | 4000 to 10000 nM | > 10000 nM | 1000 to 4000 nM | 1000 to 4000 nM |  |  |  |  |  |  |
| N#Cc1ccc(Oc2ccc3c(c2)COB3O)cc1Cl [D2, 5-(3-Chloro-4-cyanophenoxy)-1-hydroxy-2,1-benzoxaborole] | < 1000 nM | < 1000 nM | < 1000 nM | > 10000 nM | < 1000 nM | < 1000 nM |  |  |  |  |  |  |
| Cc1cc(Oc2ccc3c(c2)COB3O)ccc1C#N [D3, 5-(4-Cyano-3-methylphenoxy)-1,3-dihydro-1-hydroxy-2,1-benzoxaborole] | < 1000 nM | < 1000 nM | < 1000 nM | > 10000 nM | < 1000 nM | < 1000 nM |  |  |  |  |  |  |
| O=C1NC(=O)c2cc(Oc3ccc4c(c3)COB4O)ccc21 [D9, 5-(1,3-Dihydro-1-hydroxy-2,1-benzoxaborol-5-yloxy)isoindoline-1,3-dione] | < 1000 nM | < 1000 nM | < 1000 nM | < 1000 nM | < 1000 nM | < 1000 nM |  |  |  |  |  |  |
| CC(=O)Oc1cc(Oc2ccc3c(c2)COB3O)ccc1C#N [D11, 5-(4-Cyano-3-acetoxyphenoxy)-1,3-dihydro-1-hydroxy-2,1-benzoxaborole] | 1000 to 4000 nM | < 1000 nM | < 1000 nM | 1000 to 4000 nM | 1000 to 4000 nM | 4000 to 10000 nM |  |  |  |  |  |  |
| N#Cc1c(Cl)cccc1Oc1ccc2c(c1)COB2O [D13, 5-(3-Chloro-2-cyanophenoxy)-1,3-dihydro-1-hydroxy-2,1-benzoxaborole] | 1000 to 4000 nM | 1000 to 4000 nM | 4000 to 10000 nM | 1000 to 4000 nM | 1000 to 4000 nM | 1000 to 4000 nM |  |  |  |  |  |  |
| N#Cc1ccc(Oc2ccc3c(c2)COB3O)c(CNC=O)c1 [D25, 5-[4-Cyano-2-(formylaminomethyl)phenoxy]-1,3-dihydro-1-hydroxy-2,1-benzoxaborole] | 1000 to 4000 nM | < 1000 nM | 4000 to 10000 nM | 1000 to 4000 nM | < 1000 nM | < 1000 nM |  |  |  |  |  |  |
| N#Cc1ccc(Oc2ccc3c(c2)COB3O)c(CN)c1 [D26, 5-(2-Aminomethyl-4-cyanophenoxy)-1,3-dihydro-1-hydroxy-2,1-benzoxaborole hydrochloride] | 4000 to 10000 nM | 1000 to 4000 nM |  | > 10000 nM | 1000 to 4000 nM | 4000 to 10000 nM |  | > 10000 nM |  |  |  |  |
| CCN(CC)C(=O)COc1cc(C#N)ccc1Oc1ccc2c(c1)COB2O [D28, 2-(5-cyano-2-(1-hydroxy-1,3-dihydrobenzo[c][1,2]oxaborol-5-yloxy)phenoxy)-N,N-diethylacetamide] | < 1000 nM | < 1000 nM | < 1000 nM | 1000 to 4000 nM | < 1000 nM | < 1000 nM |  |  |  |  |  |  |
| CC(C)(C)OC(=O)COc1cc(C#N)ccc1Oc1ccc2c(c1)COB2O [D30, 5-[4-Cyano-2-(tert-butoxycarbonylmethoxy)phenoxy], 3-dihydro-1-hydroxy-2,1-benzoxaborole] | < 1000 nM | < 1000 nM | < 1000 nM | < 1000 nM | < 1000 nM | < 1000 nM |  |  |  |  |  |  |
| CCOC(=O)COc1cc(Oc2ccc3c(c2)COB3O)ccc1C#N [D38, [2-Cyano-5-(1-hydroxy-1,3-dihydro-benzo[c][1,2]oxaborol-5-yloxy)-phenoxy]-acetic acid ethyl ester] | < 1000 nM | < 1000 nM | < 1000 nM | 1000 to 4000 nM | < 1000 nM | < 1000 nM |  |  |  |  |  |  |
| CC(C)(C)OC(=O)COc1cc(Oc2ccc3c(c2)COB3O)ccc1C#N [D40, [2-Cyano-5-(1-hydroxy-1,3-dihydro-benzo[c][1,2]oxaborol-5-yloxy)-phenoxy]-acetic acid tert-butyl ester] | < 1000 nM | < 1000 nM | < 1000 nM | < 1000 nM | < 1000 nM | < 1000 nM |  |  |  |  |  |  |
| NCc1ccc(Oc2ccc3c(c2)COB3O)cc1 [D59, (4-(1-Hydroxy-1,3-dihydrobenzo[c][1,2]oxaborol-5-yloxy)phenyl) methanaminium chloride] |  | > 10000 nM |  |  |  |  |  |  | 30 to 60% | < 30% | 60 to 90% | 30 to 60% |
| COc1nc(Oc2ccc3c(c2F)COB3O)ccc1C#N [D114, 6-(4-Fluoro-1-hydroxy-1,3-dihydrobenzo[c][1,2]oxaborol-5-yloxy)-2-methoxynicotinonitrile] | < 1000 nM |  | < 1000 nM | > 10000 nM | < 1000 nM | < 1000 nM |  |  |  |  |  |  |
| NCc1ccc(Oc2ccc3c(c2)COB3O)nc1NCCO [D117] | > 10000 nM |  | 1000 to 4000 nM | > 10000 nM | 1000 to 4000 nM | 1000 to 4000 nM |  |  |  |  |  |  |
| N#Cc1ccc(Oc2ccc3c(c2)COB3O)nc1NCc1ccccc1 [D121, 2-Benzylamino-6-(1-hydroxy-1,3-dihydro-benzo[c][1,2]oxaborol-5-yloxy)-nicotinonitrile] | < 1000 nM |  | < 1000 nM | 1000 to 4000 nM | < 1000 nM | < 1000 nM |  |  |  |  |  |  |
| N#Cc1ccc(Oc2ccc3c(c2)COB3O)nc1NCCO [D132, 6-(1-hydroxy-1,3-dihydro-benzo[c][1,2]oxaborol-5-yloxy)-2-(2-hydroxy-ethylamino)-nicotinonitrile] | < 1000 nM |  | < 1000 nM | < 1000 nM | < 1000 nM | < 1000 nM |  |  |  |  |  |  |
| N#Cc1cc(CNC=O)ccc1Oc1ccc2c(c1)COB2O [D137, 5-[2-Cyano-4-(formylaminomethyl)phenoxy]-1,3-dihydro-1-hydroxy-2,1-benzoxaborole] |  |  | 1000 to 4000 nM |  |  |  | 60 to 90% |  |  | 30 to 60% | 60 to 90% | 30 to 60% |
| N#Cc1ccc(Oc2ccc3c(c2)COB3O)c(CN)c1 [D138, 5-(2-Aminomethyl-4-cyanophenoxy)-1,3-dihydro-1-hydroxy-2,1-benzoxaborole hydrochloride] |  |  |  |  |  |  | 30 to 60% | 1000 to 4000 nM |  | 30 to 60% | 60 to 90% | 60 to 90% |
